# According to patent publication US20230414628A1, “METHODS FOR TREATING DISEASES MEDIATED BY GLUTATHIONE PEROXIDASE 4” (priority 2022, published 2023):
# System: RAG02 (derived from fibroblasts of the patient's parent)
# Assay: CellTiter-Glo assay in RAG02 control cell line
# Type: cell-based, human
# Details: 1 μM control, 72 hours
# Method: (§1) Compounds described herein were tested in three cell lines, RAG01 (derived from fibroblasts of a patient diagnosed with SSMD) fibroblasts, RAG02 (derived from fibroblasts of the patient's parent), and GM09503 (from supplier Corriell) (derived from a healthy donor) to each generate 10-point concentration response curves (CRC). The three cell lines were each thawed seven (7) days prior to seeding. The RAG01 cells were thawed in a medium supplemented with a-tocopherol. Cells were passaged four (4) days prior to the seeding. The α-tocopherol was removed from the RAG01 cells. Cells were then seeded at 900 cells per well in 384-well plates. Two replicates were prepared for two independent (replicate) experiments. All plates were then incubated with compounds described herein for 72 hours, prior to CellTiter-Glo assay. The compounds were tested in 10-point concentration (CRCs) from 10 μM using 3.16×(half Log) dilutions. The assay was run using the CellTiter-Glo (Promega) following manufacturer's guidelines and luminescent spectrophotometric reading on PHERAstar FSX (BMG Labtech). […]
# (§2) The raw data was analyzed using Activity Base® software. The compounds were evaluated by efficacy (percentage effect) normalized to the vehicle control. The percentage effect (PE) was determined from the signal increase in comparison to the vehicle control according to the formula below: […]
row,Molecule,effect of control compound on RAG02 cells
1,"CCOC(=O)c1ccc(NC2CCCCC2)c(N)c1 [Ferrostain-1, Ferrostatin-1]",No effect

# System: GM09503 (derived from a healthy donor)
# Assay: CellTiter-Glo assay in GM09503 control cell line
# Type: cell-based, human
# Details: 1 μM control, 72 hours
# Method: as §1, §2
row,Molecule,effect of control compound on GM09503 cells
1,"CCOC(=O)c1ccc(NC2CCCCC2)c(N)c1 [Ferrostain-1, Ferrostatin-1]",No effect

# System: RAG01 (derived from fibroblasts of a patient diagnosed with SSMD) fibroblasts
# Assay: CellTiter-Glo concentration response in RAG01 fibroblasts
# Type: cell-based, human
# Details: Homo sapiens, Fibroblast, 72 h
# Method: Compounds described herein were tested in three cell lines, RAG01 (derived from fibroblasts of a patient diagnosed with SSMD) fibroblasts, RAG02 (derived from fibroblasts of the patient's parent), and GM09503 (from supplier Corriell) (derived from a healthy donor) to each generate 10-point concentration response curves (CRC). The three cell lines were each thawed seven (7) days prior to seeding. The RAG01 cells were thawed in a medium supplemented with a-tocopherol. Cells were passaged four (4) days prior to the seeding. The α-tocopherol was removed from the RAG01 cells. Cells were then seeded at 900 cells per well in 384-well plates. Two replicates were prepared for two independent (replicate) experiments. All plates were then incubated with compounds described herein for 72 hours, prior to CellTiter-Glo assay. […] The assay was run using the CellTiter-Glo (Promega) following manufacturer's guidelines and luminescent spectrophotometric reading on PHERAstar FSX (BMG Labtech). A 0.1% dimethylsulfoxide (DMSO) was used as a blank (vehicle control); and a 1 μM Ferrostatin-1 was used as a control (CTRL).
# as §2
# The percentage effect values were then plotted against log concentration of the drug to generate a concentration response curve. The curves were fitted using a four-parameter fit, and curve tops and hillslopes were fixed where required and justified.
row,Molecule,EC50
1,"COC(=O)c1cc2c(C(F)(F)F)cc(-c3ccccc3)cc2n1O [compound 100, NHI-2]",1310 nM

# Same assay, conditions: Homo sapiens, Fibroblast; RAG01 cell line; 72 hours incubation; CellTiter-Glo; percentage effect normalized to vehicle control; 10-point CRC from 10 μM; read-out: EC50
row,Molecule,EC50
1,"CCN1CCC(n2cc(CNc3cc(Cl)c4ncc(C#N)c(Nc5ccc(F)c(Cl)c5)c4c3)nn2)CC1 [compound 72, Cot inhibitor-2]",77 nM
2,"O=C1NC(=O)c2cc(Nc3ccc(F)cc3)c(Nc3ccc(F)cc3)cc21 [compound 73, CGP 53353]",168 nM
3,"COc1ccc2c(c1)c(C1=C(c3c[nH]c4ccccc34)C(=O)NC1=O)cn2CCCN(C)C [compound 74, Go 6983]",764 nM
4,"CN1CCN(Cc2ccc(-c3cnc4[nH]cc(-c5ccc6[nH]ccc6c5)c4c3)cc2)CC1 [compound 75, URMC-099]",377 nM
5,"COc1cc(N2CCC(N3CCN(C)CC3)CC2)ccc1Nc1ncc(Cl)c(Nc2ccccc2S(=O)(=O)C(C)C)n1 [compound 76, NVP-TAE684]",480 nM
6,"CNC(=O)c1ccccc1Nc1cc(Nc2ccc(N3CCOCC3)cc2OC)ncc1C(F)(F)F [compound 77, PND-1186 (VS-4718)]",611 nM
7,"O=C1Nc2cc(Br)ccc2/C1=C1/Nc2ccccc2/C1=N\O [compound 79, GSK-3-inhibitor-IX]",559 nM
8,"CCOc1cc(N2CCC(O)CC2)ccc1Nc1ncc2c(n1)N(C1CCCC1)CCC(=O)N2C [compound 80, Mps1-IN-1]",452 nM
9,"Cc1cc(N2CCOCC2)ccc1Nc1nc(NC2CCCCC2)c2nc[nH]c2n1 [compound 81, MPI-0479605]",688 nM
10,"Cc1ccc(NC(=O)c2ccc(CN3CCN(C)CC3)cc2)cc1Nc1nc(-c2cccnc2)cs1 [compound 82, Masitinib (AB1010)]",916 nM
11,"Cc1ccccc1C(=O)c1ccc(Nc2ccc(Br)cc2N)cc1Cl [compound 83, EO-1428]",1040 nM
12,"NC(=O)c1nc(Nc2ccccc2)sc1NC(=O)C1CCCCC1 [compound 85, UNC-3230]",1240 nM
13,"CC1(C)CNc2cc(NC(=O)c3cccnc3NCc3ccncc3)ccc21 [compound 86, Motesanib]",1460 nM
14,"Cc1ccc(F)c(NC(=O)Nc2ccc(-c3cccc4[nH]nc(N)c34)cc2)c1 [compound 87, Linifanib]",1650 nM
15,"Cc1c(NC(=O)OC[C@@H]2COCCN2)cn2ncnc(Nc3ccc4c(cnn4Cc4cccc(F)c4)c3)c12 [compound 88, BMS-599626]",2300 nM
16,"CC(C)(C)C(=O)/C(=N/c1ccc(Cl)cc1)NNc1ccc(Cl)cc1 [compound 90, TY 52156]",117 nM
17,"O=C1c2cccnc2C(=O)C(NCCN2CCOCC2)C1Cl (centres unmarked) [compound 91, NSC 663284]",268 nM

row,Molecule,EC50
1,"COc1ccc2nc3cc(Cl)ccc3c(Nc3cc(CN4CCCC4)c(O)c(CN4CCCC4)c3)c2n1 [compound 92, pyronaridine]",416 nM
2,"COC(=O)c1sccc1S(=O)(=O)Nc1ccc(Nc2ccccc2)cc1OC [compound 93, GSK-0660]",438 nM
3,"OC(CNc1ccccc1)Cn1c2ccc(Br)cc2c2cc(Br)ccc21 (centres unmarked) [compound 94, P7C3]",652 nM
4,"Cc1cccc(Nc2nc(-c3ccncc3)cs2)c1 [compound 95, STF-62247]",739 nM
5,"COc1ccc(-c2nc(-c3ccc(-c4cccc(Cl)c4)o3)[nH]c2-c2ccc(OC)cc2)cc1 [compound 96, neurodazine]",956 nM
6,"c1ccc2c(Oc3nc(Nc4ccc(N5CCOCC5)cc4)c4ncn(C5CCCCC5)c4n3)cccc2c1 [compound 97, Purmorphamine]",1100 nM
7,"C[C@@H]1CC(=O)c2c(ccc3c2C(=O)c2cccc(O)c2C3=O)C1 [compound 98, ochromycinone]",1150 nM
8,"O=C1C=Cc2cc(Br)ccc2C1=O [compound 99, bonaphthone]",1260 nM
9,"Cc1[nH]c(/C=C2\C(=O)Nc3cc(-c4ccccc4)ccc32)c(C)c1CCC(=O)O [compound 101, su-16f]",1380 nM
10,"N#Cc1ccc(-c2csc(NN=C3CCCC3)n2)cc1 [compound 103, remodelin]",1560 nM
11,"COC(=O)/C=C/c1cccc(N(Cc2ccc(-c3ccc(N(C)C)cc3)cc2)C(=O)C2CCCCC2)c1 [compound 104, Fexaramine]",1720 nM
12,"CC(C)(C)c1cc(C(C)(C)C)c(NC(=O)c2c[nH]c3ccccc3c2=O)cc1O [compound 105, ivacaftor]",1840 nM
13,"Cc1nn(C)c2nc(NNC(=O)Nc3cc(Cl)nc(Cl)c3)cc(C(C)C)c12 [compound 106, JTE-013]",2470 nM
14,"COc1cc(OC)cc(C(=O)NNC(=O)Nc2cccc3ccccc23)c1 [compound 107, TC-O-9311]",3550 nM
15,"Cn1cc(/C=C/C(=O)c2cccc(F)c2)cc1/C=C/C(=O)NO [compound 108, MC1568]",3770 nM
16,"COc1ccc2c3c([nH]c2c1)[C@H](CC(C)C)N1C(=O)[C@H](CCC(=O)OC(C)(C)C)NC(=O)[C@@H]1C3 [compound 109, Ko 143]",3940 nM
17,"CCC[C@H](N[C@H]1CCc2cc(F)cc(F)c2C1)C(=O)Nc1cn(C(C)(C)CNCC(C)(C)C)cn1 [compound 110, Nirogacestat]",5560 nM

# Same assay, conditions: RAG01 cell line; 72 hours incubation; CellTiter-Glo; percentage effect normalized to vehicle control; 10-point CRC from 10 μM; read-out: EC50
row,Molecule,EC50
1,"CCCCCCCCCCC(O)C1C=CC2C(=O)N(c3ccccc3)C(=O)C2N1Nc1ccc([N+](=O)[O-])cc1 (centres unmarked) [compound 89, A12B4C3]",2670 nM
2,butylated hydroxyanisole [compound 11],1180 nM
3,licochalcone [compound 21],1070 nM
4,piperacetazine [compound 45],1580 nM
